Measurements taken from patent US20250154145A1, “OXER1 ANTAGONISTS AND USES THEREOF” (Fairhaven Pharmaceuticals Ins., priority 2021, published 2025).
pIC50: −log10 of the molar value.

Assays:
[1] = test system: neutrophils; assay: Neutrophil calcium flux assay (5-OXO-ETE-stimulated, Indo-1 fluorescence); type: cell-based; conditions: 5-OXO-ETE-stimulated calcium flux
In short: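 Indo-1-loaded neutrophils (5×10^6 cells/ml, 30 min at 37 °C) in HBSS with Ca/Mg and HEPES, pre-incubated 5 min with antagonist or buffer. Stimulated with 5-OXO-ETE added at 200 nM (4× stock); fluorescence (ex 331/em 410 nm) read every 5 s for 30 cycles, expressed as net fluorescence.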

[2] = biological target: T1, Human OXER1 (Homo sapiens, UniProt Q8TDS5); assay: BRET early endosome trafficking assay (OXER1-Rluc8 / rGFP-FYVE in HEK293 cells); type: cell-based; conditions: HEK293 cells transfected with OXER1-Rluc8 and rGFP-FYVE, 5-oxo-ETE agonist
T1 construct: host or cells: HEK293 cells, transient transfection
T1 sequence (Q8TDS5 whole entry): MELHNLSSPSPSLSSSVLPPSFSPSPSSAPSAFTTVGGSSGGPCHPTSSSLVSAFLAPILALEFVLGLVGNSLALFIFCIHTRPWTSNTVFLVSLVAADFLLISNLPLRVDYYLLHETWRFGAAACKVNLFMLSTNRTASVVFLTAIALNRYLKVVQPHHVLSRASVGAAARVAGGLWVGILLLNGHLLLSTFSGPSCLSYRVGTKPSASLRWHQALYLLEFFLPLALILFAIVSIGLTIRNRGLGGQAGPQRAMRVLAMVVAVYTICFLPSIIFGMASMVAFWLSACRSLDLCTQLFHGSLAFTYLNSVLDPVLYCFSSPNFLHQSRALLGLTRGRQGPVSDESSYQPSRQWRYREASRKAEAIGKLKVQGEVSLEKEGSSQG
Excerpt: Background—The following assay can be used for determination of OXER1 activation in living HEK293 cells. Signalling functions of GPCRs are tightly regulated by endocytosis, the targeting of receptors to endosomes and their sorting to lysosomes or recycling to the plasma membrane. The early endosomes (EEs) trafficking assay (Namkung et al., Monitoring G protein-coupled receptor and β-arrestin trafficking in live cells using enhanced bystander BRET, Nat Commun 2016, 7: 12178) uses Rluc8-tagged OXER1 and Renilla GFP (rGFP) attached to the FYVE domain from human endofin/zinc finger FYVE domain-containing protein 16, which binds phosphatidylinositol 3-phosphate in EEs. Agonist stimulation of OXER1-Rluc8 leads to trafficking of the receptor to EEs, and ensuing increase of the donor concentration relative to the rGFP-FYVE acceptor anchored in the same cellular compartment, and thus results in an increase in BRET signal.
Plasmids—Human OXER1 VersaClone cDNA was obtained from R&D Systems. Rluc8 (A55T, C124A, S130A, K136R, A143M, M185V, M253L, and S287L variant of theRenilla renformis luciferase) gBlocks gene fragment (Integrated DNA Technologies, IA) was inserted with linker in frame at the C-terminus of OXER1. The FYVE domain from human endofin (residues Q739 to K806) attached in frame at the C terminus of a humanized Renilla GFP (rGFP), were synthesized as gBlocks gene fragments.
Bioluminescence Resonance Energy Transfer (BRET) Measurement—HEK293 cells were transfected with OXER1-Rluc8 and rGFP-FYVE. The following day, transiently transfected cells were seeded in 96-well white clear bottom microplates coated with poly-D-lysine and left in culture for 24 hours. Cells were washed once with Tyrode's buffer (140 mmol/L NaCl, 1 mmol/L CaCl2, 2.7 mmol/L KCl, 0.49 mmol/L MgCl2, 0.37 mmol/L NaH2PO4, 5.6 mmol/L glucose, 12 mmol/L NaHCO3, and 25 mmol/L HEPES, pH 7.5) before performing assays in Tyrode's buffer. Test compounds were incubated with cells for 15 minutes at 37° C. before addition of […] of the OXER1 agonist 5-oxo-6E,8Z,1IZ,14Z-eicosatetraenoic acid (5-oxo-ETE) for 45 minutes at 37° C. The Rluc8 substrate coelenterazine 400A (Prolume, Lakeside, AZ) was added at a final concentration of […] and BRET readings were collected using a Spark or Infinite M1000 microplate reader (Tecan, Morrisville, NC). BRET^2 readings between Rluc8 and rGFP were collected by sequential integration of the signals detected in the 370 to 450 nm (Rluc8) and 510 to 540 nm (rGFP) windows. The BRET signal was calculated as the ratio of light emitted by acceptor (rGFP) over the light emitted by donor (Rluc8). Ligand-promoted net BRET values were calculated by subtracting vehicle-induced net BRET from ligand-induced net BRET.

Row | SMILES | pIC50 ([1]; Neutrophil) | pIC50 [2] | pIC50 [1]
1 | C[C@@H](CC(=O)O)CC(=O)c1c(CCCCCCc2cccc(Cl)c2)n(C)c2ccc(Cl)cc12 [Compound I-1] | < 6.52 | 6.52 to 7.00 | –
2 | C[C@H](CC(=O)O)CC(=O)c1c(CCCCCCc2cccc(Cl)c2)n(C)c2ccc(Cl)cc12 [Compound I-2] | > 7.00 | > 7.00 | –
3 | C[C@H](CC(=O)O)CC(=O)c1c([C@@H](O)CCCCCc2cccc(Cl)c2)n(C)c2ccc(Cl)cc12 [Compound I-3] | < 6.52 | > 7.00 | –
4 | C[C@@H](CC(=O)O)CC(=O)c1c([C@@H](O)CCCCCc2cccc(Cl)c2)n(C)c2ccc(Cl)cc12 [Compound I-4] | < 6.52 | < 6.52 | –
5 | C[C@H](CC(=O)O)CC(=O)c1c([C@H](O)CCCCCc2cccc(Cl)c2)n(C)c2ccc(Cl)cc12 [Compound I-5] | < 6.52 | < 6.52 | –
6 | C[C@@H](CC(=O)O)CC(=O)c1c([C@H](O)CCCCCc2cccc(Cl)c2)n(C)c2ccc(Cl)cc12 [Compound I-6] | < 6.52 | < 6.52 | –
7 | C[C@H](CC(=O)O)CC(=O)c1c(CCCCCCc2ccccc2)n(C)c2ccc(Cl)cc12 [Compound I-7] | > 7.00 | > 7.00 | –
8 | C[C@@H](CC(=O)O)CC(=O)c1c(CCCCCCc2ccccc2)n(C)c2ccc(Cl)cc12 [Compound I-8] | < 6.52 | < 6.52 | –
9 | C[C@H](CC(=O)O)CC(=O)c1c(CCCCCCc2cccc(F)c2)n(C)c2ccc(Cl)cc12 [Compound I-9] | > 7.00 | > 7.00 | –
10 | C[C@H](CC(=O)O)CC(=O)c1c(CCCCCCc2ccc(O)cc2)n(C)c2ccc(Cl)cc12 [Compound I-10] | > 7.00 | > 7.00 | –
11 | CCCCCCc1c(C(=O)C[C@H](C)CC(=O)O)c2cc(Cl)ccc2n1C [Compound I-11] | 6.52 to 7.00 | 6.52 to 7.00 | –
12 | C[C@@H](CC(=O)c1c(CCCCCCc2cccc(Cl)c2)n(C)c2ccc(Cl)cc12)Cc1nnn[nH]1 [Compound I-13] | > 7.00 | > 7.00 | –
13 | C[C@H](CC(=O)NS(C)(=O)=O)CC(=O)c1c(CCCCCCc2cccc(Cl)c2)n(C)c2ccc(Cl)cc12 [Compound I-14] | 6.52 to 7.00 | 6.52 to 7.00 | –
14 | C[C@H](CC(=O)NO)CC(=O)c1c(CCCCCCc2cccc(Cl)c2)n(C)c2ccc(Cl)cc12 [Compound I-17] | < 6.52 | < 6.52 | –
15 | CONC(=O)C[C@@H](C)CC(=O)c1c(CCCCCCc2cccc(Cl)c2)n(C)c2ccc(Cl)cc12 [Compound I-19] | < 6.52 | < 6.52 | –
16 | CONC(=O)C[C@H](C)CC(=O)c1c(CCCCCCc2cccc(Cl)c2)n(C)c2ccc(Cl)cc12 [Compound I-20] | 6.52 to 7.00 | < 6.52 | –
17 | C[C@H](CC(=O)O)CC(=O)c1c(CCCCCCc2cccc(Cl)c2)oc2ccc(Cl)cc12 [Compound I-21] | < 6.52 | 6.52 to 7.00 | –
18 | C[C@@H](CC(=O)O)CC(=O)c1c(CCCCCCc2cccc(Cl)c2)oc2ccc(Cl)cc12 [Compound I-22] | < 6.52 | 6.52 to 7.00 | –
19 | C[C@H](CC(=O)O)CC(=O)c1c(CCCCCCc2cccc(Cl)c2)sc2ccc(Cl)cc12 [Compound I-23] | 6.52 to 7.00 | > 7.00 | –
20 | C[C@H](CC(=O)O)CC(=O)n1c(CCCCCCc2cccc(Cl)c2)cc2ccc(Cl)cc21 [Compound I-39] | < 6.52 | 6.52 to 7.00 | –
21 | [2H]C([2H])([2H])n1c(CCCCCCc2cccc(Cl)c2)c(C(=O)C[C@H](C)CC(=O)O)c2cc(Cl)ccc21 [Compound I-40] | > 7.00 | > 7.00 | –
22 | C[C@H](CC(=O)O)CC(=O)c1c(CCCCCC(O)c2cccc(Cl)c2)n(C)c2ccc(Cl)cc12 (some centres unmarked) [Compound I-44] | > 7.00 | > 7.00 | –

Row | SMILES | pIC50 ([1]; Neutrophil) | pIC50 [2] | pIC50 [1]
23 | C[C@H](CC(=O)O)CC(=O)c1c(CCCCCC(=O)c2cccc(Cl)c2)n(C)c2ccc(Cl)cc12 [Compound I-45] | 6.52 to 7.00 | 6.52 to 7.00 | –
24 | C[C@H](CC(=O)O)CC(=O)c1c(CCCCCC(F)c2cccc(Cl)c2)n(C)c2ccc(Cl)cc12 (some centres unmarked) [Compound I-47] | > 7.00 | > 7.00 | –
25 | C[C@H](CC(=O)O)CC(=O)c1c(CCCCCCc2ccc(O)c(Cl)c2)n(C)c2ccc(Cl)cc12 [Compound I-48] | > 7.00 | > 7.00 | –
26 | C[C@H](CC(=O)O)CC(=O)c1c(CCCCCOc2cccc(Cl)c2)n(C)c2ccc(Cl)cc12 [Compound I-59] | > 7.00 | 6.52 to 7.00 | –
27 | C[C@H](CC(=O)O)CC(=O)c1c(CCCCOCc2cccc(Cl)c2)n(C)c2ccc(Cl)cc12 [Compound I-60] | > 7.00 | 6.52 to 7.00 | –
28 | CC(C)C#CCCCCCCc1c(C(=O)C[C@H](C)CC(=O)O)c2cc(Cl)ccc2n1C [Compound I-68] | > 7.00 | > 7.00 | –
29 | CC(C)CCOCc1c(C(=O)C[C@H](C)CC(=O)O)c2cc(Cl)ccc2n1C [Compound I-73] | < 6.52 | < 6.52 | –
30 | C[C@H](CC(=O)O)CC(=O)c1c(CCCCOCc2cccc(Cl)c2)n(C)c2ncc(Cl)cc12 [Compound I-83] | > 7.00 | 6.52 to 7.00 | –
31 | C[C@H](CC(=O)O)CC(=O)c1c(CCCCCC(O)c2cccc(Cl)c2)n(C)c2ncc(Cl)cc12 (some centres unmarked) [Compound I-85] | > 7.00 | > 7.00 | –
32 | C[C@H](CC(=O)O)CC(=O)c1c(CCCCCCc2cccc(Cl)c2)n(C)c2ccc(C#N)cc12 [Compound I-98] | > 7.00 | > 7.00 | –
33 | CC(CC(=O)O)CC(=O)c1c(CCCCOCc2ccccc2)n(C)c2ncc(C#N)cc12 (centres unmarked) [Compound I-104] | > 7.00 | 6.52 to 7.00 | –
34 | C[C@H](CC(=O)O)CC(=O)c1c(CCCCOCc2ccccc2)n(C)c2ncc(C#N)cc12 [Compound I-105] | > 7.00 | 6.52 to 7.00 | –
35 | C[C@H](CC(=O)O)CC(=O)c1c(CCCCOCc2cccc(Cl)c2)n(C)c2ccc(C#N)cc12 [Compound I-180] | > 7.00 | > 7.00 | –
36 | C[C@H](CC(=O)O)CC(=O)c1c(CCCCOCc2cccc(Cl)c2)n(C)c2ncc(C(F)(F)F)cc12 [Compound I-182] | > 7.00 | 6.52 to 7.00 | –
37 | CC(CC(=O)O)CC(=O)c1c(CCCCOCc2cccc(Cl)c2)n(C)c2ccc(C(F)(F)F)cc12 (centres unmarked) [Compound I-185] | > 7.00 | 6.52 to 7.00 | –
38 | Cn1c(CCCCCCC#CC2CC(F)(F)C2)c(C(=O)N2CC[C@H](C(=O)N[C@@H](CCC(N)=O)C(=O)O)C2)c2cc(C#N)cnc21 [Compound I-463] | < 6.52 | – | –
39 | Cn1c(CCCCCCC#CC2CC(F)(F)C2)c(C(=O)N2CC[C@H](C(=O)NCCS(=O)(=O)O)C2)c2cc(C#N)cnc21 [Compound I-464] | < 6.52 | – | –
40 | CC(C)[C@H](NC(=O)C[C@@H](C)CC(=O)c1c(CCCCOCc2ccccc2)n(C)c2ncc(C#N)cc12)C(=O)O [Compound I-466] | < 6.52 | – | –
41 | C[C@H](CC(=O)N[C@@H](Cc1ccccc1)C(=O)O)CC(=O)c1c(CCCCOCc2ccccc2)n(C)c2ncc(C#N)cc12 [Compound I-467] | < 6.52 | – | –
42 | CC(CC(=O)O)CC(=O)n1c(CCCCCCc2cccc(Cl)c2)cc2ncc(Cl)cc21 (centres unmarked) [Compound I-468] | – | – | < 6.52
43 | C[C@@H](CC(=O)O)CC(=O)c1c(CCCCOCc2cccc(Cl)c2)n(C)c2ccc(C#N)cc12 [Compound I-469] | 6.52 to 7.00 | – | –
